Results reported in patent US9586901B2, “Lactams” (UNILEVER PLC, priority 2006, dated 2017).

Key:
[1] = tested on: V. fischeri luxRI system; assay: N-acylated homoserine lactone (AHL) quorum sensing assay, GFP reporter strain; format: cell-based, E. coli; details: for ID40 at 3 nM OHHL: Table 4, number in parentheses, unit not given, amount of compound lowering relative activity to 40%
Experimental: Compounds of the present invention were compared to compounds of the prior art in order using an AHL-quorum sensing assay which utilises a reporter strain that expresses Green Fluorescent Protein (GFP) in the presence of AHL signals. The assay is performed by measuring GFP output in the presence of the compound to be measured and comparing the output to a control. By using multiple samples at varying concentrations of compound and AHL, an inhibition index of compound activity can be generated. The inhibition index used in the present example is the relative amount of compound required to reduce GFP expression to 40% of the control. The inhibition index is termed AIC40. Lower values of AIC40 represent better inhibitors of the AHL quorum sensing system.
The reporter strain of bacterium used in this assay is E. coli into which the V. fischeri luxRI system has been engineered. A gfp gene is fused to the QS controlled luxI promoter as is described in (Andersen et al., 2001, and Andersen et al, 1998).
Measurement of AIC40 (ID40 at 3 nM OHHL)
Determination of the activity of compounds using the E. coli based luxRI construct was performed as follows.
In a 15 mL plastic tube, mix 3 mL of o.n. culture of the lux reporter strain with 12 mL fresh medium, incubate at 37° C. Label six tubes, 10, 20, two 50 and two 100. To each of the tubes, add OHHL (3-oxohexanoyl homoserine lactone) to a final concentration of 10, 20, 50, or 100 nM respectively in the AB medium (add enough medium to distribute across the appropriate number of wells). To the first row of the microplate (row A), add 200 ul of the OHHL/AB mixture. To the remaining rows (B-H) add 100 ul of the OHHL/AB mixture. To the first row (A) add compounds to be tested to the 200 ul mixture of OHHL/AB. Make a dilution series in the first 7 rows by transferring 100 μL from wells in row 1 to wells in row 2 and so on. Discard the remaining 100 μL from row 7. Add 100 μL diluted lux monitor to each well. Incubate the plate 2 hours at 37° C. and measure green fluorescence using the “Victor” plate reader.
Calculate ID40 for each column. To do this, calculate the relative activity in each well. […] Make a plot for each concentration of OHHL vs. the range of compound concentrations used. Calculate the amount of compound needed to lower the relative activity to 40%, this is termed inhibiting dose 40%, ID40. For each compound an inhibition index, AIC40, is found as follows: plot ID40 against its respective AHL concentration; AIC40 is the slope of the best straight line through the plotted points and origin.
The methodology for this assay is set out in 2(a) above.

[2] = tested on: Staphylococcus epidermidis; assay: S. epidermidis growth inhibition (OD600 growth curves); format: cell-based; details: concentration of compound that significantly alters growth rate or final growth yield
Experimental: The growth inhibition of Staphylococcus epidermidis by the compounds of the present invention was determined by growing S. epidermidis in 96 well microtitre plates in Trypticase Soy Broth plus 0.5% glucose in a Wallac Victor2 microplate reader. Each compound was added to the wells at different concentrations and a no-compound control and a set of blank wells were also used. The OD600 was measured hourly.

[3] = tested on: P. aeruginosa biofilm; assay: Inhibition of biofilm formation in petri dishes, P. aeruginosa; format: cell-based; details: percent reduction of control
Experimental: (§1) Biofilm formation in petri dishes was measured using the following protocol as a compromise between flow cells and microtitire plate based assays. The method increases the number of replicates (relative to flow cells) that can be tested while still generating a biofilm that has typical structures, such as microcolonies, which are important as differentiated structures within the biofilm. The method consists of placing a surface, such as a glass slide (for unattached compounds) or a modified plastic coupon (for covalently attached compounds) on the bottom of a sterile petri dish and adding growth medium. The bacteria are inoculated into the dish and allowed to incubate at the appropriate temperature at 50 rpm. The medium is replaced at 24 h and allowed to incubate a further 24 h, after which time, the slides are removed and rinsed to remove loosely attached cells. For monitoring biofilm formation on glass slides, the cells are either stained with a suitable fluorescent stain and are visualised using the confocal microscope and the biofilm (as % surface coverage) is quantified, or the biofilm is stained with crystal violet, washed thoroughly to remove excess stain, and subsequently destained and the absorbance at […] is measured to determine the amount of biofilm, as a function of crystal violet staining.

[4] = tested on: LasR; assay: LasR assay (unstable gfp fused to the elastase promoter); format: cell-based; details: Pseudomonas aeruginosa, read-out: LasR (conc)
Experimental: Compounds of the present invention were also assayed using a LasR assay. The LasR assay provides a measurement of quorum sensing inhibition activity. The higher the percentage inhibition. […] In the LasR assay, an unstable gfp has been fused to the elastase promoter, so that the amount of Gfp is regulated by the QS system. The plasmid is put into Pseudomonas aeruginosa which makes its own AHL signals. The assay is performed by adding the compounds to be tested to the system at the beginning of the experiment, at different concentrations. Gfp expression is measured at different times during growth, ending at the 24 h time point. The percentage fluorescence was determined at the time point when the fluorescence reached its maximum in the control, usually around 11-12 h after inoculation.

[5] = tested on: S. epidermidis biofilm; assay: Inhibition of biofilm formation in petri dishes, S. epidermidis; format: cell-based; details: 10 ug/ml; percent reduction of control
Experimental: as §1

[6] = tested on: Murine L929 cells; assay: Cytotoxicity study, L929 cell number after 48 hour culture; format: cell-based; details: for Mean (cell number): L929, 48 hour; for % Inhibition: cell number vs non-challenged cultures
Experimental: Murine L929 cells are established at low density and, during the testing period, grow to confluency in plastic petri dishes. 24 hours after the dishes are inoculated, the medium on the test dishes is aspirated and replaced with a medium containing the compound to be tested. The cell monolayer is then cultured for a further 48 hour period. At the end of the test period, cells are harvested from the dishes and their numbers assessed and compared with unperturbed cultures. Differences in cell numbers are expressed as a percentage inhibition in comparison to non-challenged cultures.

[7] = tested on: E. coli biofilm; assay: Inhibition of biofilm formation in petri dishes, E. coli; format: cell-based; details: 5 ug/ml; percent reduction of control
Experimental: as §1

[8] = Table 4 comparative results, first number of the cell, lower = better
[9] = inhibition index: slope of ID40 against AHL concentration, lower = better inhibitor, NE = no effect
[10] = 40 μg/ml, 30% = cytotoxic potential

C=C1NC(=O)C=C1c1ccc(F)cc1 [drawing 21]
ID40 at 3 nM OHHL [1]: 17.61 | AIC40 [1, 8]: 4.61 | AIC40 [1, 9]: 4.61 | minimal effective concentration [2]: 20 µg/mL | P. aeruginosa biofilm ([3]; 12.5 ug/ml): 78% (12.5 ug/ml) | inhibition at 50 µg/mL [4]: 61% | S. epidermidis biofilm [5]: 40% (10 ug/ml)

CCO [Ethanol]
Mean (cell number) ([6]; 4% Ethanol): 3.40E+05 | % Inhibition ([6]; 4% Ethanol): 30.7% | Mean (cell number) ([6]; 5% Ethanol): 3.09E+05 | % Inhibition ([6]; 5% Ethanol): 36.9% | Mean (cell number) ([6]; 7.5% Ethanol): 7.63E+04 | % Inhibition ([6]; 7.5% Ethanol): 84.5%

C=C1NC(=O)C=C1Cc1ccccc1
ID40 at 3 nM OHHL [1]: 239.79 | AIC40 [1, 8]: 69.45 | AIC40 [1, 9]: 69.45 | inhibition at 50 µg/mL [4]: 61%

C=C1NC(=O)C=C1c1cccc(C(F)(F)F)c1
AIC40 [1, 9]: 4.6 | minimal effective concentration [2]: 0.5 µg/mL | inhibition at 25 µg/mL [4]: 40%

C=C1NC(=O)C=C1c1ccccc1 [drawing 20]
ID40 at 3 nM OHHL [1]: 16.2 | AIC40 [1, 8]: 1.1 | AIC40 [1, 9]: 1.1 | minimal effective concentration [2]: 5 µg/mL | P. aeruginosa biofilm ([3]; 10 ug/ml): 88% (10 ug/ml) | E. coli biofilm [7]: 95% (5 ug/ml) | inhibition at 50 µg/mL [4]: 80%

C=C1C(c2ccccc2)=CC(=O)N1C
ID40 at 3 nM OHHL [1]: 163.26 | AIC40 [1, 8]: 52.76 | AIC40 [1, 9]: 52.76 | inhibition at 50 µg/mL [4]: 40%

CC(C)CN1C(=O)C(c2ccccc2)=CC1=C(Br)Br [Compound 223]
Mean (cell number) ([6]; 10 μg/ml): 3.31E+05 | % Inhibition ([6]; 10 μg/ml): 24.1% | Mean (cell number) ([6]; 20 μg/ml): 2.94E+05 | % Inhibition ([6]; 20 μg/ml): 32.5% | Mean (cell number) ([6]; 40 μg/ml, E+05 = ×10^5): 2.07E+05 | % Inhibition [6, 10]: 52.4%

CC(C)CN1C(=O)C=C(c2ccccc2)C1=C(Br)Br [Compound 226]
Mean (cell number) ([6]; 5 μg/ml): 3.41E+05 | % Inhibition ([6]; 5 μg/ml): 21.8% | Mean (cell number) ([6]; 10 μg/ml): 2.14E+05 | % Inhibition ([6]; 10 μg/ml): 50.9% | Mean (cell number) ([6]; 20 μg/ml): 2.42E+05 | % Inhibition ([6]; 20 μg/ml): 44.4% | Mean (cell number) ([6]; 40 μg/ml, E+05 = ×10^5): 1.67E+05 | % Inhibition [6, 10]: 61.6%

C=C1NC(=O)C=C1c1ccc(F)cc1 [Compound 257]
AIC40 [1, 8]: significantly better AIC40 values than compounds 198 and 205

C=C1NC(=O)C=C1c1ccc(OC)cc1 [Compound 294]
AIC40 [1, 8]: significantly better AIC40 values than compounds 198 and 205

C=C1NC(=O)C=C1c1cccc(F)c1
AIC40 [1, 9]: 1.3 | minimal effective concentration [2]: 0.5 µg/mL | inhibition at 25 µg/mL [4]: 70%

O=C1C=C(Br)/C(=C/Br)N1Cc1ccccc1 [reference compound]
AIC40 [1, 8]: 27
